IC50 and ED50 data for 5 molecules are collected here from ChEMBL document CHEMBL1126464, “Carbamate series of juvenoids” (Bioorg Med Chem Lett, 1992).

SMILES strings stand for the structures.

One test concerns Acyrthosiphon pisum. Nature of the test: Concentration required for 50% inhibition of acyrthosiphon pisum (ACY) was expressed as percent of active ingredient. Format: functional, organism-based.
In another test the test system is Dysdercus cingulatus. The test can be described thus: Effective dose that causes 50 % inhibition of Dysdercus cingulatus (DYS) was determined. The test is classed as functional.
The test system of another test is Galleria mellonella. Nature of the test: Effective dose that causes 50 % inhibition of Galleria mellonella (GAL) was determined. The test is classed as functional.

As to `CCOC(=O)NCCOc1ccc(CC2CCCCC2=O)cc1` (stereo not given), in the test on Acyrthosiphon pisum, the IC50 is listed as 0.05%. The 50% effective dose (ED50) (commonly the dose that gives a 50% effect, or the effect in half of the subjects) stood at 8 µg/kg in the test with Dysdercus cingulatus and 0.2 µg/kg in the test with Galleria mellonella.
Turning to `CCOC(=O)/C=C(C)/C=C/CC(C)CCCC(C)C` (stereo not given) [HYDROPRENE], the IC50 in the test with Acyrthosiphon pisum came out at 0.04%. The ED50 with Dysdercus cingulatus was 1000 µg/kg; with Galleria mellonella it was 10 µg/kg.
As for `CCOC(=O)NCCOc1ccc(C[C@@H]2CCCC[C@@H]2O)cc1`, the IC50 in the test on Acyrthosiphon pisum is > 0.1%. Also, the 50% effective dose (ED50) came out at 1 µg/kg in the test with Dysdercus cingulatus and 0.8 µg/kg in the test with Galleria mellonella.
As for `CCOC(=O)NCCOc1ccc(CC2CCCCC23OCCO3)cc1` (stereo not given), in the test with Acyrthosiphon pisum, the IC50 is listed as 0.005%. Besides, the figures for the ED50 with Dysdercus cingulatus and with Galleria mellonella were 80 µg/kg and 0.8 µg/kg, respectively.
`CCOC(=O)NCCOc1ccc(C[C@H]2CCCC[C@@H]2O)cc1`: in the test on Acyrthosiphon pisum, the IC50 was > 0.1%. Further, the values for the 50% effective dose (ED50) with Dysdercus cingulatus and in the test on Galleria mellonella were 40 µg/kg and 0.8 µg/kg, respectively.
